{
  "source": "patent US6432426B1",
  "about": "“Non-staining topical iodine composition and method” (Symbollon Corporation, priority 1998, dated 2002)",
  "key": {"Human Skin": {"tested_on": "Human Skin", "test": "Coloration of human skin by a 30 second exposure (vial contact on forearm); hue by Pantone chips, intensity against Brown No. 3 dye", "format": "in vivo", "set-up": "key to Coloration of human skin: N = no visible staining; L = light staining barely noticeable; S = a clearly visible coloration", "details": "for Coloration of human skin: 30 second exposure, lines = Subjects 1-3", "excerpt": "1. […] Elemental iodine was weighed on an analytical balance and dissolved in one liter of water that had been acidified with 2 drops of 0.1N hydrochloric acid. The concentration of molecular iodine in the water was confirmed by potentiometric analysis (Gottardi, W., 1983. Fresenius Z. Anal. Chem., Vol. 314, pages 582-585). Samples were also titrated with thiosulfate to determine that at least 95% of the theoretical yield of titratable iodine was in the form of molecular iodine as opposed to triiodide. The concentration of molecular iodine was varied from 25 ppm to 330 ppm.\nOne dram vials (Kimble catalog #60931) were used to deliver 4 mL of the room temperature iodine solutions samples. The vials were placed on the forearm of a subject and then the forearm was inverted to initiate contact of the sample with the iodine solution. The contact area was a circle with a diameter of 1.3 cm. The samples were held on the arm for 30 seconds at room temperature. Three different subjects were used for this experiment. Immediately after the 30 second contact time the arms of the subjects were examined for stains; 10 minutes after the end of the contact time all subjects arms were examined for stains again..\nFor the purposes of this application, two different parameters were used to characterize the color and intensity of the term stain. The hue of the color imparted to skin was characterized by using the Pantone Color Matching System (Pantone Color Specifier, Pantone Inc., Carlstadt, N.J.) which allows comparison with 1,012 defined colors on two types of paper. Stains from triiodide were matched to the Pantone color chip No. 152C. Short-lived coloration from molecular iodine were matched to the Pantone color chip 1375C.\nThe intensity of any coloration on skin was characterized by applying an aqueous solution of known concentrations of a food dye, Brown No. 3 (Crompton & Knowles, Mahwah, N.J. —Code DP935159), for 10 seconds using the method described above for application of iodine. Brown No. 3 was applied to the skin at concentrations that ranged from 500 ppm to 30 ppm and the intensity of the color from Brown No. 3 was compared to the intensity of coloration from iodine compositions. For instance, the intensity of color 10 minutes after a 30 second contact with a 600 ppm aqueous triiodide solution was equivalent to the color from a 10 second exposure to a 250 ppm Brown No. 3 solution. In contrast, the intensity of color 10 minutes after a 30 second contact with a 300 ppm aqueous molecular iodine solution was equivalent to the color from a ten second exposure to a 30 ppm Brown No. 3 solution which is barely discernible."}, "Staphylococcus aureus": {"tested_on": "Staphylococcus aureus", "test": "Residual biocidal effect of skin associated iodine, colony counts from inoculated treated skin", "format": "in vivo", "details": "320 ppm saturated molecular iodine solution, 30 second contact; inoculated two hours after contact, sampled ninety minutes after inoculation", "description": "5. […] […] […] […] The samples were contacted with the arm for 30 seconds. After contact the treated arm was flushed with water for 15 seconds and dried.\n[…] Two hours after contact each area was inoculated with […] of a 1:100 dilution of a 48 hour soy-trypticase culture of Staphylococcus aureus. Ninety minutes after inoculation the mouths of sterile 25 mL flasks filled with 2 mL of soy-trypticase with 2% Tween 80 were placed over the marked skin areas. The flasks were gently shaken for 1 minute and a colony count was performed on blood agar plates after incubation at 37° C. for 48 hours. The residual biocidal effect from skin associated molecular iodine was determined by subtracting the log of the colony counts from the areas of skin that were contacted with iodine from the controls (log colony count from untreated skin). The average difference in colony counts between treated and untreated skin was 2.4 logs."}, "[1]": {"tested_on": "Staphylococcus epidermidis", "test": "Residual biocidal effect of skin associated iodine, repeated experiment", "format": "in vivo", "details": "saturated molecular iodine solution (320 ppm)"}, "Pseudomonas aeruginosa": {"tested_on": "Pseudomonas aeruginosa", "test": "Residual biocidal effect of skin associated iodine, repeated experiment", "format": "in vivo", "details": "saturated molecular iodine solution (320 ppm)"}, "[2]": {"test": "Concentration of molecular iodine in a saturated solution", "format": "physicochemical", "details": "pH of 4.5", "description": "5. […] A saturated solution of molecular iodine was prepared at a pH of 4.5. The concentration of molecular iodine was measured to be 320 ppm and the concentration of triiodide was determined to be less than 5 ppm. A 1.0 dram vial containing four mL of the saturated iodine solution was contacted with the forearm of a subject and then the forearm was inverted to initiate contact of the sample with the molecular iodine solution. The samples were contacted with the arm for 30 seconds. After contact the treated arm was flushed with water for 15 seconds and dried."}},
  "data": [
    {"compound": "II", "note": "[Molecular Iodine, molecular iodine]", "values": [
      {"measurement": "Coloration of human skin", "setting": "Human Skin; 25 ppm molecular iodine, 0 min post contact", "value": "N"},
      {"measurement": "Coloration of human skin", "setting": "Human Skin; 25 ppm molecular iodine, 10 min post contact", "value": "N"},
      {"measurement": "Coloration of human skin", "setting": "Human Skin; 50 ppm molecular iodine, 0 min post contact", "value": "N"},
      {"measurement": "Coloration of human skin", "setting": "Human Skin; 50 ppm molecular iodine, 10 min post contact", "value": "N"},
      {"measurement": "Coloration of human skin", "setting": "Human Skin; 100 ppm molecular iodine, 0 min post contact", "value": "N and L"},
      {"measurement": "Coloration of human skin", "setting": "Human Skin; 100 ppm molecular iodine, 10 min post contact", "value": "N"},
      {"measurement": "Coloration of human skin", "setting": "Human Skin; 200 ppm molecular iodine, 0 min post contact", "value": "S"},
      {"measurement": "Coloration of human skin", "setting": "Human Skin; 200 ppm molecular iodine, 10 min post contact", "value": "N"},
      {"measurement": "Coloration of human skin", "setting": "Human Skin; 300 ppm molecular iodine, 0 min post contact", "value": "S"},
      {"measurement": "Coloration of human skin", "setting": "Human Skin; 300 ppm molecular iodine, 10 min post contact", "value": "N and L"},
      {"measurement": "Intensity of color on skin, equivalent Brown No. 3 solution (ten second exposure)", "setting": "Human Skin; 10 minutes after a 30 second contact with a 300 ppm aqueous molecular iodine solution, barely discernible", "value": 30, "unit": "ppm"},
      {"measurement": "Hue of the color imparted to skin, matched Pantone color chip", "setting": "Human Skin; Pantone Color Matching System", "value": 1375, "unit": "C"},
      {"measurement": "Average difference in colony counts between treated and untreated skin", "setting": "Staphylococcus aureus", "value": 2.4, "unit": "logs"},
      {"measurement": "Residual biocidal efficacy on skin", "setting": "[1]", "value": "Efficacy was also demonstrated"},
      {"measurement": "Log reduction (smallest observed)", "setting": "Pseudomonas aeruginosa", "value": 0.5, "unit": "logs"},
      {"measurement": "Concentration of molecular iodine in saturated solution", "setting": "[2]", "value": 320, "unit": "ppm"}
    ]}
  ]
}
